Marks after values point to notes of the source that are not given here.
Legend:
Format in all cases: in vivo
[1] = system: Erysiphe graminis f. sp. tritici; experiment: Test J: wheat powdery mildew on wheat seedlings, sprayed the day before inoculation, visual disease rating; conditions: 100 = 100% disease control; for pest or weed control at 200 ppm: Blumeria graminis, 168 h
Text: (§1) General protocol for preparing test suspensions for Tests A-J: The test compounds were first dissolved in acetone in an amount equal to 3% of the final volume and then suspended at the desired concentration (in ppm) in acetone and purified water (50/50 mix) containing 250 ppm of the surfactant Trem® 014 (polyhydric alcohol esters). The resulting test suspensions were then used in tests A-J. Spraying a 200 ppm test suspension to the point of run-off on the test plants was the equivalent of a rate of 500 g/ha. […] The test suspension was sprayed to the point of run-off on wheat seedlings. […] A dash (-) indicates no test results. All results are for 200 ppm except where followed by “*”, which indicates 40 ppm.

[2] = system: Puccinia recondita f. sp. tritici; experiment: Test I: wheat leaf rust on wheat seedlings, sprayed the day before inoculation, visual disease rating; conditions: 100 = 100% disease control; for pest or weed control at 200 ppm: Puccinia recondita, 168 h
Text: as §1

Septoria tritici = experiment: Test G: wheat leaf blotch on wheat seedlings, sprayed the day before inoculation, visual disease rating; conditions: 100 = 100% disease control; for pest or weed control at 200 ppm: Zymoseptoria tritici, 504 h
Text: General protocol for preparing test suspensions for Tests A-J: The test compounds were first dissolved in acetone in an amount equal to 3% of the final volume and then suspended at the desired concentration (in ppm) in acetone and purified water (50/50 mix) containing 250 ppm of the surfactant Trem® 014 (polyhydric alcohol esters). The resulting test suspensions were then used in tests A-J. Spraying a 200 ppm test suspension to the point of run-off on the test plants was the equivalent of a rate of 500 g/ha. […] The test suspension was sprayed to the point of run-off on wheat seedlings. The following day the seedlings were inoculated with a spore suspension of Septoria tritici (the causal agent of wheat leaf blotch) and incubated in saturated atmosphere at 24° C. for 48 h, and then moved to a growth chamber at 20° C. for 19 days, after which time visual disease ratings were made. […] A dash (-) indicates no test results. All results are for 200 ppm except where followed by “*”, which indicates 40 ppm.

Botrytis cinerea = experiment: Test C: tomato Botrytis on tomato seedlings, sprayed the day before inoculation, visual disease rating; conditions: 100 = 100% disease control; for pest or weed control at 200 ppm: Botrytis cinerea, 120 h
Text: General protocol for preparing test suspensions for Tests A-J: The test compounds were first dissolved in acetone in an amount equal to 3% of the final volume and then suspended at the desired concentration (in ppm) in acetone and purified water (50/50 mix) containing 250 ppm of the surfactant Trem® 014 (polyhydric alcohol esters). The resulting test suspensions were then used in tests A-J. Spraying a 200 ppm test suspension to the point of run-off on the test plants was the equivalent of a rate of 500 g/ha. […] The test suspension was sprayed to the point of run-off on tomato seedlings. […] A dash (-) indicates no test results. All results are for 200 ppm except where followed by “*”, which indicates 40 ppm.

Septoria nodorum = experiment: Test F: wheat glume blotch on wheat seedlings, sprayed the day before inoculation, visual disease rating; conditions: 100 = 100% disease control; for pest or weed control at 200 ppm: Parastagonospora nodorum, 264 h
Text: as §1

Alternaria solani = experiment: Test D: tomato early blight, sprayed the day before inoculation, visual disease rating; conditions: 100 = 100% disease control; for pest or weed control at 200 ppm: Alternaria solani, 168 h
Text: as §1

[3] = 200 ppm, 0 = no control relative to controls

Compound	pest or weed control at 200 ppm [1, 3] [%]	pest or weed control at 200 ppm [2, 3] [%]	pest or weed control at 200 ppm (Septoria tritici; [3]) [%]	pest or weed control at 200 ppm (Botrytis cinerea; [3]) [%]	pest or weed control at 200 ppm (Septoria nodorum; [3]) [%]	pest or weed control at 200 ppm (Alternaria solani; [3]) [%]	Test J disease control rating [1, 3] [%]	Test I disease control rating [2, 3] [%]	Test G disease control rating (Septoria tritici; [3]) [%]	Test C disease control rating (Botrytis cinerea; [3]) [%]	Test F disease control rating (Septoria nodorum; [3]) [%]	Test D disease control rating (Alternaria solani; [3]) [%]	also measured
Fc1ccc(-c2c(Cl)nnn2-c2ccc(Cl)cc2)c(F)c1 [Compound 24, 4-chloro-1-(4-chlorophenyl)-5-(2,4-difluorophenyl)-1H-1,2,3-triazole]	95	28	67	90	0	0	–	–	–	–	–	–	–
C#Cc1nc(Cl)c(-c2c(F)cccc2F)n1-c1cccc(F)c1 [Compound 47, 4-chloro-5-(2,6-difluorophenyl)-2-ethynyl-1-(3-fluorophenyl)-1H-imidazole]	93	54	77	94	0	42	–	–	–	–	–	–	–
N#Cc1nc(Cl)c(-c2c(F)ccc(F)c2F)n1-c1ccc(Cl)cc1 [Compound 57, 4-chloro-1-(4-chlorophenyl)-5-(2,3,6-trifluorophenyl)-1H-imidazole-2-carbonitrile]	100	96	87	84	0	99	–	–	–	–	–	–	–
Cc1nn(C)c(-c2c(F)cccc2F)c1-c1cccc(F)c1 [Compound 60, 5-(2,6-difluorophenyl)-4-(3-fluorophenyl)-1,3-dimethyl-1H-pyrazole]	0	0	2	81	0	0	–	–	–	–	–	–	–
Cn1nc(Br)c(-c2c(F)cccc2F)c1-c1ccc(Cl)cc1 [Compound 125, 3-bromo-5-(4-chlorophenyl)-4-(2,6-difluorophenyl)-1-methyl-1H-pyrazole]	100	91	92	98	0	100	–	–	–	–	–	–	–
COc1cc(F)c(-c2c(Cl)ncn2-c2cccc(F)c2)c(F)c1 [Compound 246, 4-chloro-5-(2,6-difluoro-4-methoxyphenyl)-1-(3-fluorophenyl)-1H-imidazole]	–	–	–	–	–	–	–	–	–	–	–	–	pest or weed control at 200 ppm ([1]; 200 ppm, 0 = no control): 99%; pest or weed control at 200 ppm ([2]; 200 ppm, 0 = no control): 100%; pest or weed control at 200 ppm (Septoria tritici; 200 ppm, 0 = no control): 93%; pest or weed control at 200 ppm (Botrytis cinerea; 200 ppm, 0 = no control): 100%; pest or weed control at 200 ppm (Septoria nodorum; 200 ppm, 0 = no control): 95%; pest or weed control at 200 ppm (Alternaria solani; 200 ppm, 0 = no control): 100%
COc1cc(F)c(-c2c(Cl)nc(Br)n2-c2cccc(F)c2)c(F)c1 [Compound 256, 2-bromo-4-chloro-5-(2,6-difluoro-4-methoxyphenyl)-1-(3-fluorophenyl)-1H-imidazole]	–	–	–	–	–	–	–	–	–	–	–	–	pest or weed control at 200 ppm ([1]; 200 ppm, 0 = no control): 99%; pest or weed control at 200 ppm ([2]; 200 ppm, 0 = no control): 100%; pest or weed control at 200 ppm (Septoria tritici; 200 ppm, 0 = no control): 97%; pest or weed control at 200 ppm (Botrytis cinerea; 200 ppm, 0 = no control): 100%; pest or weed control at 200 ppm (Septoria nodorum; 200 ppm, 0 = no control): 100%; pest or weed control at 200 ppm (Alternaria solani; 200 ppm, 0 = no control): 100%
COc1cc(F)c(-c2c(Cl)nc(C)n2-c2cccc(F)c2)c(F)c1 [Compound 280, 4-chloro-5-(2,6-difluoro-4-methoxyphenyl)-1-(3-fluorophenyl)-2-methyl-1H-imidazole]	–	–	–	–	–	–	–	–	–	–	–	–	pest or weed control at 200 ppm ([1]; 200 ppm, 0 = no control): 100%; pest or weed control at 200 ppm ([2]; 200 ppm, 0 = no control): 100%; pest or weed control at 200 ppm (Septoria tritici; 200 ppm, 0 = no control): 95%; pest or weed control at 200 ppm (Botrytis cinerea; 200 ppm, 0 = no control): 100%; pest or weed control at 200 ppm (Septoria nodorum; 200 ppm, 0 = no control): 100%; pest or weed control at 200 ppm (Alternaria solani; 200 ppm, 0 = no control): 100%
COc1ccc(F)c(-c2c(Br)ncn2-c2ccc(F)cc2)c1F [Compound 450, 4-bromo-5-(2,6-difluoro-3-methoxyphenyl)-1-(4-fluorophenyl)-1H-imidazole]	100	100	97	97	99	100	–	–	–	–	–	–	–
COc1cc(F)c(-c2c(C)nc(C)n2-c2ccc(Cl)c(F)c2)c(F)c1 [compound 44]	–	–	–	–	–	–	–	–	–	–	–	–	Test J disease control rating ([1]; 40 ppm (marked *)): 98* %; Test I disease control rating ([2]; 40 ppm (marked *)): 99* %; Test G disease control rating (Septoria tritici; 40 ppm (marked *)): 92* %; Test C disease control rating (Botrytis cinerea; 40 ppm (marked *)): 99* %; Test F disease control rating (Septoria nodorum; 40 ppm (marked *)): 40* %; Test D disease control rating (Alternaria solani; 40 ppm (marked *)): 100* %
COc1cc(F)c(-c2c(C)ncn2-c2ccc(Cl)c(F)c2)c(F)c1 [compound 46]	–	–	–	–	–	–	–	–	–	–	–	–	Test J disease control rating ([1]; 40 ppm (marked *)): 78* %; Test I disease control rating ([2]; 40 ppm (marked *)): 26* %; Test G disease control rating (Septoria tritici; 40 ppm (marked *)): 83* %; Test C disease control rating (Botrytis cinerea; 40 ppm (marked *)): 86* %; Test F disease control rating (Septoria nodorum; 40 ppm (marked *)): 0* %; Test D disease control rating (Alternaria solani; 40 ppm (marked *)): 97* %
Cc1nc(Cl)c(-c2c(F)ccc(F)c2F)n1-c1ccc(Cl)cc1 [compound 48]	–	–	–	–	–	–	100	100	94	99	100	100	–
Cc1nc(Cl)c(-c2ccc(F)cc2Cl)n1-c1ccc(Cl)cc1 [compound 49]	–	–	–	–	–	–	99	99	94	98	100	100	–
Fc1ccc(F)c(-c2c(Cl)nc(Br)n2-c2ccc(Cl)cc2)c1F [compound 50]	–	–	–	–	–	–	100	100	92	98	100	100	–
Fc1ccc(-c2c(Cl)nc(Br)n2-c2ccc(Cl)cc2)c(Cl)c1 [compound 51]	–	–	–	–	–	–	99	97	94	94	100	100	–
Fc1cccc(Cl)c1-c1c(Cl)nc(Br)n1-c1ccc(Cl)cc1 [compound 52]	–	–	–	–	–	–	100	99	97	84	0	100	–
Cc1nc(Cl)c(-c2c(F)cccc2Cl)n1-c1ccc(Cl)cc1 [compound 53]	–	–	–	–	–	–	99	100	95	89	0	100	–
Fc1cc(F)cc(-n2c(Br)nc(Cl)c2-c2c(F)cccc2F)c1 [compound 54]	–	–	–	–	–	–	91	99	87	92	0	24	–
COc1cc(F)c(-c2c(C)nc(C)n2-c2ccc(Cl)cc2)c(F)c1 [compound 55]	–	–	–	–	–	–	–	–	–	–	–	–	Test J disease control rating ([1]; 40 ppm (marked *)): 100* %; Test I disease control rating ([2]; 40 ppm (marked *)): 99* %; Test G disease control rating (Septoria tritici; 40 ppm (marked *)): 93* %; Test C disease control rating (Botrytis cinerea; 40 ppm (marked *)): 94* %; Test F disease control rating (Septoria nodorum; 40 ppm (marked *)): 98* %; Test D disease control rating (Alternaria solani; 40 ppm (marked *)): 100* %
COc1cc(F)c(-c2c(C)ncn2-c2ccc(Cl)cc2)c(F)c1 [compound 56]	–	–	–	–	–	–	99	–	–	–	–	–	Test I disease control rating ([2]; 40 ppm (marked *)): 94* %; Test G disease control rating (Septoria tritici; 40 ppm (marked *)): 96* %; Test C disease control rating (Botrytis cinerea; 40 ppm (marked *)): 96* %; Test F disease control rating (Septoria nodorum; 40 ppm (marked *)): 60* %; Test D disease control rating (Alternaria solani; 40 ppm (marked *)): 100* %

— patent US20110045101A1, “FUNGICIDAL SUBSTITUTED AZOLES” (E.I. Du Pont De Nemours and Company, priority 2009, published 2011)
